Reference: the NIST ThermoML archive (doi:10.1021/je7003758)

Test: xn = mol fraction of the nth substance listed
Settings: 298.15 K, Liquid

CCCCCl [1-chlorobutane] + CN1CCCC1=O
mass density [kg/m3]
Settings	x2 = 0.1004	x2 = 0.2002	x2 = 0.2974	x2 = 0.4	x2 = 0.5052	x2 = 0.6019	x2 = 0.7039	x2 = 0.8011	x2 = 0.9002
100 kPa	896.6	912	926.8	942.2	957.5	971.7	986.2	1000.1	1014.3
500 kPa	896.9	–	927.1	942.5	957.8	972	986.5	1000.4	1014.5
600 kPa	–	912.3	–	–	–	–	–	–	–
1000 kPa	897.4	912.7	927.5	942.8	958.2	972.2	986.8	1000.6	1014.8
1500 kPa	897.9	913.2	927.9	943.2	958.6	972.6	987.1	1000.9	1015.1
2000 kPa	898.4	913.6	928.4	943.6	958.9	973	987.4	1001.2	1015.3
2400 kPa	–	–	928.7	–	–	973.3	–	–	–
2500 kPa	898.9	914.1	–	944	959.3	–	987.7	1001.6	1015.6
3000 kPa	899.3	914.6	929.2	944.4	959.6	973.6	988	1001.8	1015.9
3500 kPa	899.8	915	929.6	944.8	960	973.9	988.4	1002.2	1016.2
3900 kPa	–	–	–	–	–	974.2	–	–	–
4000 kPa	900.3	915.4	930	945.1	960.3	–	988.7	1002.4	1016.5
4400 kPa	900.7	–	–	–	–	–	–	–	1016.7
4500 kPa	–	915.9	930.4	945.6	960.7	974.6	989	1002.7	–
4900 kPa	901.2	–	–	–	–	–	–	–	–
5000 kPa	–	916.3	930.8	945.9	961.1	–	989.3	1003	1017
5100 kPa	–	–	–	–	–	975	–	–	–
5400 kPa	901.7	–	–	–	–	975.2	–	–	–
5500 kPa	–	916.8	931.2	946.3	961.4	–	989.6	1003.3	1017.3
5900 kPa	–	917.1	–	–	–	–	–	–	–
6000 kPa	902.1	–	931.7	946.7	961.8	975.6	990	1003.6	1017.6
6500 kPa	902.6	917.6	932.1	947.1	962.2	976	990.2	1003.9	1017.8
6900 kPa	903	–	932.5	–	–	–	–	–	–
7000 kPa	–	918.1	–	947.5	962.5	976.3	990.6	1004.2	1018.2
7500 kPa	903.5	918.5	932.8	–	962.9	976.6	990.9	1004.5	1018.4
7600 kPa	–	–	–	948	–	–	–	–	–
7900 kPa	903.9	–	–	–	–	–	991.1	–	–
8000 kPa	–	918.9	933.3	948.3	963.2	976.9	–	1004.8	1018.7
8400 kPa	–	919.3	–	–	–	–	–	–	–
8500 kPa	904.4	–	933.6	948.6	963.6	977.2	991.5	1005.1	1019
8900 kPa	–	919.7	–	–	–	977.5	991.7	–	–
9000 kPa	904.9	–	933.9	949	963.9	–	–	1005.4	1019.2
9400 kPa	–	–	934.3	–	–	–	992	–	–
9500 kPa	905.3	920.2	–	949.3	964.2	977.9	–	1005.6	1019.5
9900 kPa	–	–	934.8	–	–	–	–	–	–
10000 kPa	905.8	920.7	–	949.8	964.7	978.3	992.4	–	1019.8
10100 kPa	–	–	–	–	–	–	–	1006.1	–
10400 kPa	–	–	–	950.1	–	–	–	–	–
10500 kPa	–	921.1	935.3	–	965	978.6	992.7	1006.3	1020.1
10600 kPa	906.4	–	–	–	–	–	–	–	–
10900 kPa	906.7	–	–	950.4	–	–	–	–	–
11000 kPa	–	921.5	935.6	–	965.4	978.9	993	1006.6	1020.4
11400 kPa	–	921.9	–	–	–	–	993.3	–	–
11500 kPa	907.2	–	936	950.8	965.7	979.3	–	1006.8	1020.6
11900 kPa	–	–	936.3	–	–	–	–	–	–
12000 kPa	907.6	922.4	–	951.2	966	979.6	993.6	1007.1	1020.9
12400 kPa	–	–	–	951.6	–	979.8	993.9	–	–
12500 kPa	908.1	922.8	936.8	–	966.4	–	–	1007.4	1021.1
12900 kPa	–	–	–	–	–	–	–	1007.6	–
13000 kPa	908.5	923.2	937.1	951.9	966.7	980.2	994.2	–	1021.4
13400 kPa	–	–	–	–	–	–	994.5	–	–
13500 kPa	908.9	923.6	937.6	952.3	967	–	–	1008	1021.7
13600 kPa	–	–	–	–	–	980.6	–	–	–
13900 kPa	–	–	–	952.7	–	–	–	–	–
14000 kPa	–	–	937.8	–	967.4	–	994.8	1008.2	1022
14100 kPa	909.5	924.1	–	–	–	981	–	–	–
14400 kPa	–	–	–	953	967.7	–	–	–	1022.2
14500 kPa	909.8	924.4	938.2	–	–	981.1	995.1	1008.5	–
15000 kPa	910.2	924.7	938.6	953.4	968	981.5	–	1008.8	1022.5
15100 kPa	–	–	–	–	–	–	995.6	–	–
15500 kPa	910.7	925.2	939	953.8	–	981.8	995.7	1009.1	–
15600 kPa	–	–	–	–	968.5	–	–	–	1022.8
16000 kPa	911.1	925.6	939.4	954.1	968.7	982.1	996	1009.3	1023
16400 kPa	–	926	939.7	–	–	982.4	–	–	–
16500 kPa	911.5	–	–	954.4	969.1	–	996.3	1009.6	1023.2
16900 kPa	–	–	940.1	–	–	–	–	–	–
17000 kPa	911.9	926.3	–	954.8	969.4	982.8	996.6	1009.9	1023.4
17400 kPa	–	–	940.5	–	–	–	–	1010.2	–
17500 kPa	912.3	926.7	–	955.2	969.7	983	996.8	–	1023.8
18000 kPa	912.7	927.1	940.8	–	970.1	–	997.2	1010.5	1024
18100 kPa	–	–	–	955.6	–	983.4	–	–	–
18500 kPa	913.1	927.6	–	955.8	970.3	983.6	997.5	–	1024.2
18600 kPa	–	–	941.4	–	–	–	–	1010.8	–
19000 kPa	913.6	928	941.7	956.2	970.8	984	–	1011	1024.5
19100 kPa	–	–	–	–	–	–	997.9	–	–
19400 kPa	913.9	–	–	–	–	–	–	–	–
19500 kPa	–	928.3	942.1	956.6	971	984.3	998	1011.3	1024.8
20000 kPa	914.5	928.7	942.6	957	971.4	984.6	998.4	1011.6	1025.1
